In publication PMC10710422, “Senescence-associated 13-HODE production promotes age-related liver steatosis by directly inhibiting catalase activity” (Nature Communications, 2023):
Blank lines part the entries; values can stand above or below the molecule they belong to.

What was measured:
[1] = target: T1, Recombinant mouse catalase protein (CAT) (Mus musculus, UniProt P24270); experiment: surface plasmon resonance (Biacore T200), steady-state affinity; format: binding
T1 construct: commercial recombinant protein, immobilised on CM5 chip
T1 sequence (P24270 2-527): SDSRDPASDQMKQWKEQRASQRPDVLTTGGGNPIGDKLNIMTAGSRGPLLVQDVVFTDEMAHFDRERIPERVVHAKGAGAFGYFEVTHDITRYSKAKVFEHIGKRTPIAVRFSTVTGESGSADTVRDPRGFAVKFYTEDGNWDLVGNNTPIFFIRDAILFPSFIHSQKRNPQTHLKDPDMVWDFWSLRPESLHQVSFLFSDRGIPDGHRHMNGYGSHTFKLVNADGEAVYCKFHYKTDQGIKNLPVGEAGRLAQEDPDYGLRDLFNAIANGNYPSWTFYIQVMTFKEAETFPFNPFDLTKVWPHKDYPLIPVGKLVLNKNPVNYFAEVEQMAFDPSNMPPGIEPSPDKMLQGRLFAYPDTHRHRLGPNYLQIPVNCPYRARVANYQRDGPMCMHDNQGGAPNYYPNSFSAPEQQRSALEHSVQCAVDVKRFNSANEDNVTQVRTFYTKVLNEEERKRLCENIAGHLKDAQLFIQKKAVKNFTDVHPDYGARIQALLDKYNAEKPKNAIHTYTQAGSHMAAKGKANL

[2] = target: T2, recombinant human CAT protein (Homo sapiens, UniProt P04040); experiment: catalase activity kit; format: biochemical; conditions: 20 min preincubation with 1 μM 13-HODE, room temperature not stated
T2 construct: commercial recombinant protein
T2 sequence (P04040 2-527): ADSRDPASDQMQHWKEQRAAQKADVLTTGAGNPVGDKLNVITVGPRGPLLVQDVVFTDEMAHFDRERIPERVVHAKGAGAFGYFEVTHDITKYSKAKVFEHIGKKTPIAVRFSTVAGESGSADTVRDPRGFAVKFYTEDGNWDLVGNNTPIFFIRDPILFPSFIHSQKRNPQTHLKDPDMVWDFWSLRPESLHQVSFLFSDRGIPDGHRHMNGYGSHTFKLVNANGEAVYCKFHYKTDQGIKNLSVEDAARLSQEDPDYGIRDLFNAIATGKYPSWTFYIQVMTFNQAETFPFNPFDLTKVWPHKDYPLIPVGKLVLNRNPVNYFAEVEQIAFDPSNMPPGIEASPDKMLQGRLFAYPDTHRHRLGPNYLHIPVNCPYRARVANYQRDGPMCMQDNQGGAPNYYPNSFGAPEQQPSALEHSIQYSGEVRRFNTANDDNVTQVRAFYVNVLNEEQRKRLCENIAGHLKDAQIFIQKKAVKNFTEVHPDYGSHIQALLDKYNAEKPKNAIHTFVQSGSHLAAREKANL

[3] = target: the molecule itself; experiment: cross-linking; primary mouse hepatocytes treated with or without 1 uM 13-HODE for 6 h, then 100 uM DSS crosslinker for 1 h before protein extraction; western blot for CAT tetramer and monomer; monomer to tetramer

Kd [1]: 2.42 µM
Molecule: CCCCC[C@H](O)/C=C/C=C\CCCCCCCC(=O)O [13(S)-HODE]

Molecule: CCCCCC(O)/C=C/C=C\CCCCCCCC(=O)O (stereo not drawn) [13-HODE]
CAT activity at 1 μM [2]: incubated recombinant CAT protein with 13-HODE and found that it inhibited CAT activity in vitro

B1: Catalase (CAT) (enzyme, UniProt P24270 1-527, looked up)
chain: MSDSRDPASDQMKQWKEQRASQRPDVLTTGGGNPIGDKLNIMTAGSRGPLLVQDVVFTDEMAHFDRERIPERVVHAKGAGAFGYFEVTHDITRYSKAKVFEHIGKRTPIAVRFSTVTGESGSADTVRDPRGFAVKFYTEDGNWDLVGNNTPIFFIRDAILFPSFIHSQKRNPQTHLKDPDMVWDFWSLRPESLHQVSFLFSDRGIPDGHRHMNGYGSHTFKLVNADGEAVYCKFHYKTDQGIKNLPVGEAGRLAQEDPDYGLRDLFNAIANGNYPSWTFYIQVMTFKEAETFPFNPFDLTKVWPHKDYPLIPVGKLVLNKNPVNYFAEVEQMAFDPSNMPPGIEPSPDKMLQGRLFAYPDTHRHRLGPNYLQIPVNCPYRARVANYQRDGPMCMHDNQGGAPNYYPNSFSAPEQQRSALEHSVQCAVDVKRFNSANEDNVTQVRTFYTKVLNEEERKRLCENIAGHLKDAQLFIQKKAVKNFTDVHPDYGARIQALLDKYNAEKPKNAIHTYTQAGSHMAAKGKANL
notes: Catalase, mouse, endogenous in primary hepatocytes of C57BL/6 mice; Detected by western blot as monomer and tetramer after DSS cross-linking; source: endogenous, primary mouse hepatocytes (cross-linked in cells before protein extraction)
stoichiometry N [3]: 4
